Calls of active or inactive are those of the source. The calls are words filed in the database; no cut-off is given here.
Key:
3T3-L1 [1] = assay: Induction of mitochondrial fusion in mouse 3T3L1 cells at 10 to 50 uM after 48 hrs by green Fm-staining; format: functional, cell-based
3T3-L1 [2] = assay: Reduction in triglyceride level in mouse 3T3L1 cells at 10 to 50 uM after 48 hrs; format: functional, cell-based

Compound | Activity (3T3-L1 [1]) | Activity (3T3-L1 [2])
OCC(CO)OCC(COC(CO)CO)n1cc(COc2cc(O)cc(/C=C/c3ccc4c(c3)OCO4)c2)nn1 | Active | inactive
OCC(CO)OCC(COC(CO)CO)n1cc(COc2cc(O)cc(/C=C/c3ccc(O)c(O)c3)c2)nn1 | Active | Active
COc1ccc(/C=C/c2cc(O)cc(OCc3cn(C(COC(CO)CO)COC(CO)CO)nn3)c2)cc1 | inactive | inactive
OCC(CO)OCC(COC(CO)CO)n1cc(COc2cc(O)cc(/C=C/c3ccc(O)cc3)c2)nn1 | inactive | inactive
Oc1cc(O)cc(/C=C/c2ccc(O)c(O)c2)c1 | Active | Active

— ChEMBL document CHEMBL2057197, “Synthesis and evaluation of water-soluble resveratrol and piceatannol via BGLation” (Bioorg Med Chem Lett, 2012)
